Values of other authors, collected in patent US7041655B1, “Capillary membrane stabilization and reduction of tissue injury through use of IV biodegradable macromolecules with antioxidants and/or other chemicals” (priority 1996, dated 2006).

Key:
[1] = used for fluid replacement therapy
[2] = in 24 hours; molecules below 50,000 daltons rapidly eliminated by renal excretion
[3] = intravenous infusion

dextran
toxic reactions observed [1]: Few toxic reactions

hydroxyethyl starch
part of a given total dose appearing in the urine [2]: approximately 40%
duration of improved hemodynamic status of the subject [3]: ≥ 24 h
time over which the expansion of plasma volume decreases ([3]; expansion slightly in excess of the volume infused): 24 to 36 h
toxic reactions observed [1]: Few toxic reactions
